{"source": "ChEMBL document CHEMBL3352821", "about": "“Cyclic Hexapeptides from the Deep South China Sea-Derived Streptomyces scopuliridis SCSIO ZJ46 Active Against Pathogenic Gram-Positive Bacteria” (J Nat Prod, 2014)", "key": {"[1]": {"test_system": "NCI-H460", "experiment": "Cytotoxicity against human NCI-H460 after 72 hrs by SRB assay", "type": "functional, cell-based", "conditions": "NCI-H460, 72 h"}, "[2]": {"test_system": "SF-268", "experiment": "Cytotoxicity against human SF268 cells after 72 hrs by SRB assay", "type": "functional, cell-based", "conditions": "SF-268, 72 h"}, "[3]": {"test_system": "Staphylococcus aureus", "experiment": "Antimicrobial activity against methicillin-resistant Staphylococcus aureus shhs-A1 clinical isolate by serial dilution/CLSI method", "type": "functional"}, "[4]": {"test_system": "Staphylococcus aureus", "experiment": "Antimicrobial activity against Staphylococcus aureus ATCC 29213 by serial dilution/CLSI method", "type": "functional"}, "[5]": {"test_system": "Staphylococcus epidermidis", "experiment": "Antimicrobial activity against methicillin-resistant Staphylococcus epidermidis shhs-E1 clinical isolate by serial dilution/CLSI method", "type": "functional"}, "[6]": {"test_system": "Klebsiella pneumoniae", "experiment": "Antimicrobial activity against Klebsiella pneumoniae ATCC 13883 by serial dilution/CLSI method", "type": "functional"}, "[7]": {"test_system": "Streptococcus pneumoniae", "experiment": "Antimicrobial activity against Streptococcus pneumoniae NCTC 7466 by serial dilution/CLSI method", "type": "functional"}, "[8]": {"test_system": "HepG2", "experiment": "Cytotoxicity against human HepG2 cells after 72 hrs by SRB assay", "type": "functional, cell-based", "conditions": "HepG2, 72 h"}, "[9]": {"test_system": "MCF7", "experiment": "Cytotoxicity against human MCF7 cells after 72 hrs by SRB assay", "type": "functional, cell-based", "conditions": "MCF7, 72 h"}}, "note": "Non-standard residues stand in square brackets, D forms with d. Residues, ends and D or L forms follow the SMILES beside them. aIle = CC[C@@H](C)[C@H](N)C(=O)O", "data": [{"smiles": "CC[C@@H](C)[C@@H]1NC(=O)[C@@H](CC(C)C)NC(=O)[C@H](CC(C)C)NC(=O)[C@H](CC(=O)c2ccccc2N)NC(=O)CNC(=O)[C@H](CC(N)=O)NC1=O", "values": [{"measurement": "IC50", "setting": "[1]", "result": "> 100", "unit": "µM"}, {"measurement": "IC50", "setting": "[2]", "result": "> 100", "unit": "µM"}, {"measurement": "MIC", "setting": "[3]", "result": "> 128", "unit": "µg/mL"}, {"measurement": "MIC", "setting": "[4]", "result": "> 128", "unit": "µg/mL"}, {"measurement": "MIC", "setting": "[5]", "result": "> 128", "unit": "µg/mL"}, {"measurement": "MIC", "setting": "[6]", "result": "> 128", "unit": "µg/mL"}, {"measurement": "MIC", "setting": "[7]", "result": "> 100", "unit": "µg/mL"}, {"measurement": "IC50", "setting": "[8]", "result": "> 100", "unit": "µM"}, {"measurement": "IC50", "setting": "[9]", "result": "> 100", "unit": "µM"}]}, {"smiles": "CC[C@@H](C)[C@@H]1NC(=O)[C@@H](CC(C)C)NC(=O)[C@H](CC(C)C)NC(=O)[C@H](Cc2c[nH]c3ccccc23)NC(=O)CNC(=O)[C@H](CC(N)=O)NC1=O", "note": "[DESOTAMIDE] (cyclo(GWL[dL][aIle]N))", "values": [{"measurement": "IC50", "setting": "[1]", "result": "> 100", "unit": "µM"}, {"measurement": "IC50", "setting": "[2]", "result": "> 100", "unit": "µM"}, {"measurement": "MIC", "setting": "[3]", "result": "> 128", "unit": "µg/mL"}, {"measurement": "MIC", "setting": "[4]", "result": 16, "unit": "µg/mL"}, {"measurement": "MIC", "setting": "[5]", "result": 32, "unit": "µg/mL"}, {"measurement": "MIC", "setting": "[6]", "result": "> 128", "unit": "µg/mL"}, {"measurement": "MIC", "setting": "[7]", "result": 12.5, "unit": "µg/mL"}, {"measurement": "IC50", "setting": "[8]", "result": "> 100", "unit": "µM"}, {"measurement": "IC50", "setting": "[9]", "result": "> 100", "unit": "µM"}]}, {"smiles": "CN[C@H](CC(C)C)C(=O)N[C@H]1C(=O)N[C@@H](CC(N)=O)C(=O)N[C@H]2C(=O)N[C@H]3C(=O)N[C@H](C(=O)N[C@H](C(=O)O)c4cc(O)cc(O)c4-c4cc3ccc4O)[C@H](O)c3ccc(c(Cl)c3)Oc3cc2cc(c3O[C@@H]2O[C@H](CO)[C@@H](O)[C@H](O)[C@H]2O[C@H]2C[C@](C)(N)[C@H](O)[C@H](C)O2)Oc2ccc(cc2Cl)[C@H]1O", "note": "[VANCOMYCIN]", "values": [{"measurement": "MIC", "setting": "[6]", "result": "> 128", "unit": "µg/mL"}, {"measurement": "MIC", "setting": "[7]", "result": 0.37, "unit": "µg/mL"}]}, {"smiles": "CC[C@@H](C)[C@@H]1NC(=O)[C@@H](CC(C)C)NC(=O)[C@H](CC(C)C)NC(=O)[C@H](CC(=O)c2ccccc2NC=O)NC(=O)CNC(=O)[C@H](CC(N)=O)NC1=O", "values": [{"measurement": "IC50", "setting": "[1]", "result": "> 100", "unit": "µM"}, {"measurement": "IC50", "setting": "[2]", "result": "> 100", "unit": "µM"}, {"measurement": "MIC", "setting": "[3]", "result": "> 128", "unit": "µg/mL"}, {"measurement": "MIC", "setting": "[4]", "result": "> 128", "unit": "µg/mL"}, {"measurement": "MIC", "setting": "[5]", "result": "> 128", "unit": "µg/mL"}, {"measurement": "MIC", "setting": "[6]", "result": "> 128", "unit": "µg/mL"}, {"measurement": "MIC", "setting": "[7]", "result": "> 100", "unit": "µg/mL"}, {"measurement": "IC50", "setting": "[8]", "result": "> 100", "unit": "µM"}, {"measurement": "IC50", "setting": "[9]", "result": "> 100", "unit": "µM"}]}, {"smiles": "CC(C)C[C@@H]1NC(=O)[C@H](Cc2c[nH]c3ccccc23)NC(=O)CNC(=O)[C@H](CC(N)=O)NC(=O)[C@H](C(C)C)NC(=O)[C@@H](CC(C)C)NC1=O", "values": [{"measurement": "IC50", "setting": "[1]", "result": "> 100", "unit": "µM"}, {"measurement": "IC50", "setting": "[2]", "result": "> 100", "unit": "µM"}, {"measurement": "MIC", "setting": "[3]", "result": "> 128", "unit": "µg/mL"}, {"measurement": "MIC", "setting": "[4]", "result": 16, "unit": "µg/mL"}, {"measurement": "MIC", "setting": "[5]", "result": 32, "unit": "µg/mL"}, {"measurement": "MIC", "setting": "[6]", "result": "> 128", "unit": "µg/mL"}, {"measurement": "MIC", "setting": "[7]", "result": 12.5, "unit": "µg/mL"}, {"measurement": "IC50", "setting": "[8]", "result": "> 100", "unit": "µM"}, {"measurement": "IC50", "setting": "[9]", "result": "> 100", "unit": "µM"}]}]}
